Reference: patent publication US9920074B2 (ACEA BIOSCIENCES INC., priority 2013, dated 2018)

Assays:
[1] = molecular target: T1, Btk (Tyr223) phosphorylation in Ramos cells (Homo sapiens, UniProt Q06187); test: Western blotting assay for Btk (Example 73); type: cell-based; conditions: 45 min, 6 μg/mL anti-IgM, read-out: Btk Inhibition
T1 construct: endogenous in cells; host or cells: Ramos cells (ATCC)
Protocol: (§1) All cell lines were obtained from the American Type Culture Collection and were maintained at 37° C. with 5% CO2. Ramos cell line was maintained in media supplemented with 10% fetal bovine serum, penicillin (100 units/mL) and streptomycin (100 μg/mL). NK-92 cell line was maintained in media supplemented with 10% fetal bovine serum and 10% horse serum, penicillin (100 units/mL) and streptomycin (100 μg/mL), IL-2 10 ng/mL. Goat F(ab′)2 Anti-Human IgM-UNLB was obtained from SouthernBiotech. IL-2 was obtained from Peprotech.
Ramos cells were treated with compounds at indicated doses for 45 min at room temperature, followed by stimulation of 6 μg/mL of anti-IgM for 30 min, and then lysed. Western blots were performed on the cell lysate using Phospho-Btk (Tyr223), Phospho-Btk (Tyr551), Btk, Phospho-PLCγ2 (Tyr1217), PLCγ2, Phospho-p44/42 MAPK (Erk1/2) (Thr202/Tyr204) and p44/42 MAPK (Erk1/2) antibodies (Cell Signaling Technology). The density of blotting band was acquired using ImageJ software, and the IC50 of Btk (Tyr223) phosphorylation was fitted using a non-linear regression model by GraphPad Prism.

[2] = system: Stat5 phosphorylation in NK-92 cells; test: Western blotting assay for Stat5; type: cell-based; conditions: NK92, 1 hour, IL-2 stimulation, read-out: Stat5 inhibition
Protocol: as §1
NK-92 cells were treated with compounds at the dosed indicated for 1 hour in incubator, followed by the IL-2 stimulation for 15 minutes. Cells were then collected and lysed to prepare the cellular extraction. Western blots were performed on cell lysate using Phospho-Jak3, Jak3, Phospho-Stat5, Stat5 antibodies (Cell Signaling Technology). The intensity of blotting band was acquired using Image Lab (Bio-Rad) software, and the IC50 of target was generated with GraphPad Prism.

T1 sequence (Q06187 whole entry): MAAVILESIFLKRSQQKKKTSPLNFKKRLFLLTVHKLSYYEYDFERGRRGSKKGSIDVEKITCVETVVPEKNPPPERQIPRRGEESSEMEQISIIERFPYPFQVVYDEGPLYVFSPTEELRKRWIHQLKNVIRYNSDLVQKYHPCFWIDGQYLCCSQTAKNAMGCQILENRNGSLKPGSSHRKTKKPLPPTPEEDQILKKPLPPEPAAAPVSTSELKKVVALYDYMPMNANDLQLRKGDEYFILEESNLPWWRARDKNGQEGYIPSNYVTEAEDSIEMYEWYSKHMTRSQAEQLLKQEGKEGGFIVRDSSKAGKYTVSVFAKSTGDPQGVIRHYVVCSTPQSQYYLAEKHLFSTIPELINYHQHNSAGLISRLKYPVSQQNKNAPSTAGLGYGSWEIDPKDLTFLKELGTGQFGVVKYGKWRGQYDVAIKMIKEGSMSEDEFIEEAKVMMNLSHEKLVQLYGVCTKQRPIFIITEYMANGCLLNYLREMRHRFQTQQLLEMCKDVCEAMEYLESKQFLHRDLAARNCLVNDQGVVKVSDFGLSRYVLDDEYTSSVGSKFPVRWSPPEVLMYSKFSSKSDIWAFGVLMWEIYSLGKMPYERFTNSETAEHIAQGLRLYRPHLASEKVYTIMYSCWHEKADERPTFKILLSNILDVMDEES

Compound | IC50 [1] [µM] | IC50 [2] [µM]
C=CC(=O)Nc1cccc(Oc2nc(Nc3ccc(N4CCN(C)CC4)c(F)c3)ncc2O)c1 [Compound I-23a, N-(3-(2-(3-fluoro-4-(4-methylpiperazin-1-yl)phenylamino)-5-hydroxypyrimidin-4-yloxy)phenyl)acrylamide] | 0.01 to 0.1 | ≥ 0.4
C=CC(=O)Nc1cccc(Oc2nc(Nc3ccc(OCCOC)c(F)c3)nc3[nH]ccc23)c1 [Compound I-24a, N-(3-(2-(3-fluoro-4-(2-methoxyethoxy)phenylamino)-7H-pyrrolo[2,3-d]pyrimidin-4-yloxy)phenyl)acrylamide] | 0.01 to 0.1 | 
C=CC(=O)Nc1cccc(Oc2nc(Nc3ccc(N(C)[C@H]4CCN(CCF)C4)cc3)nc3[nH]ccc23)c1 [Compound I-26a, (S)—N-(3-(2-(4-((1-(2-fluoroethyl)pyrrolidin-3-yl)(methyl)amino)phenylamino)-7H-pyrrolo[2,3-d]pyrimidin-4-yloxy)phenyl)acrylamide] | 0.01 to 0.1 | 
C=CC(=O)Nc1cccc(Oc2nc(Nc3cccc4c3CCN4CCOC)ncc2OC)c1 [Compound I-28a, N-(3-(5-methoxy-2-(1-(2-methoxyethyl)indolin-4-ylamino)pyrimidin-4-yloxy)phenyl)acrylamide] | 0.01 to 0.1 | 
C=CC(=O)Nc1cccc(Nc2nc(Nc3cccc4c3CCN4CCOC)ncc2OC)c1 [Compound I-29a, N-(3-(5-methoxy-2-(1-(2-methoxyethyl)indolin-4-ylamino)pyrimidin-4-ylamino)phenyl)acrylamide] | ≥ 0.1 | 
C=CC(=O)Nc1cccc(Oc2nc(Nc3ccc(N(C)CCOC)nc3)ncc2OC)c1 [Compound I-33a, N-(3-(5-methoxy-2-(6-((2-methoxyethyl)(methyl)amino)pyridin-3-ylamino)pyrimidin-4-yloxy)phenyl)acrylamide] | 0.01 to 0.1 | ≥ 0.4
C=CC(=O)Nc1cccc(Oc2nc(Nc3ccc(N(C)[C@H]4CCN(CCOC)C4)cc3OC)ncc2OC)c1 [Compound I-55a, (S)—N-(3-(5-methoxy-2-(2-methoxy-4-((1-(2-methoxyethyl)pyrrolidin-3-yl)(methyl)amino)phenylamino)pyrimidin-4-yloxy)phenyl)acrylamide] | ≥ 0.1 | 
C=CC(=O)Nc1cccc(Oc2nc(Nc3ccc(N[C@H]4CCN(S(C)(=O)=O)C4)cc3)nc3[nH]ccc23)c1 [Compound I-62a, (S)—N-(3-(2-(4-(1-(methylsulfonyl)pyrrolidin-3-ylamino)phenylamino)-7H-pyrrolo[2,3-d]pyrimidin-4-yloxy)phenyl)acrylamide] | ≤ 0.01 | 
C=CC(=O)Nc1cccc(Oc2nc(Nc3ccc(N(C)[C@H]4CCN(S(C)(=O)=O)C4)cc3)nc3[nH]ccc23)c1 [Compound I-63a, (S)—N-(3-(2-(4-(methyl(1-(methylsulfonyl)pyrrolidin-3-yl)amino)phenylamino)-7H-pyrrolo[2,3-d]pyrimidin-4-yloxy)phenyl)acrylamide] | ≤ 0.01 | 
C=CC(=O)Nc1cccc(Oc2nc(Nc3ccc(N(C)[C@H]4CCN(C(C)=O)C4)cc3)nc3[nH]ccc23)c1 [Compound I-64a, (S)—N-(3-(2-(4-((1-acetylpyrrolidin-3-yl)(methyl)amino)phenylamino)-7H-pyrrolo[2,3-d]pyrimidin-4-yloxy)phenyl)acrylamide] | ≤ 0.01 | 
C=CC(=O)Nc1cccc(Oc2nc(Nc3ccc(N4CCN(CCOC)CC4)cc3)nc3[nH]cnc23)c1 [Compound I-65a, N-(3-(2-(4-(4-(2-methoxyethyl)piperazin-1-yl)phenylamino)-9H-purin-6-yloxy)phenyl)acrylamide] | ≤ 0.01 | 
C=CC(=O)Nc1cccc(Oc2nc(Nc3ccc(N[C@H]4CCN(C(C)=O)C4)cc3)ncc2OC)c1 [Compound I-66a, (S)—N-(3-(2-(4-((1-acetylpyrrolidin-3-yl)amino)phenylamino)-5-methoxypyrimidin-4-yloxy)phenyl)acrylamide] | ≤ 0.01 | 
C=CC(=O)Nc1cccc(Oc2nc(Nc3ccc(N[C@H]4CCN(CCOC)C4)cc3)nc3[nH]cnc23)c1 [Compound I-67a, (S)—N-(3-(2-(4-(1-(2-methoxyethyl)pyrrolidin-3-ylamino)phenylamino)-9H-purin-6-yloxy)phenyl)acrylamide] | 0.01 to 0.1 | 
C=CC(=O)Nc1cccc(Oc2nc(Nc3ccc(N4CCN(C(C)=O)CC4)cc3)nc3[nH]cnc23)c1 [Compound I-68a, N-(3-(2-(4-(4-acetylpiperazin-1-yl)phenylamino)-9H-purin-6-yloxy)phenyl)acrylamide] | 0.01 to 0.1 | 
C=CC(=O)Nc1cccc(Oc2nc(Nc3ccc(N4CCN(CCS(C)(=O)=O)CC4)cc3)nc3[nH]cnc23)c1 [Compound I-69a, N-(3-(2-(4-(4-(2-(methylsulfonyl)ethyl)piperazin-1-yl)phenylamino)-9H-purin-6-yloxy)phenyl)acrylamide] | 0.01 to 0.1 | 
C=CC(=O)Nc1cccc(Oc2nc(Nc3ccc4c(c3)CS(=O)(=O)N4)ncc2OC)c1 [Compound I-70a, N-(3-((2-((2,2-dioxido-1,3-dihydrobenzo[c]isothiazol-5-yl)amino)-5-methoxypyrimidin-4-yl)oxy)phenyl)acrylamide] | 0.01 to 0.1 | 
C=CC(=O)Nc1cccc(Oc2nc(Nc3ccc(N(C)[C@H]4CCN(S(C)(=O)=O)C4)cc3)nc3[nH]cnc23)c1 [Compound I-71a, (S)—N-(3-(2-(4-(methyl(1-(methylsulfonyl)pyrrolidin-3-yl)amino)phenylamino)-9H-purin-6-yloxy)phenyl)acrylamide] | ≤ 0.01 | 
C=CC(=O)Nc1cccc(Oc2nc(Nc3ccc(N(C)[C@@H]4CCN(C(C)=O)C4)cc3)ncc2OC)c1 [Compound I-72a, (R)—N-(3-(2-(4-((1-acetylpyrrolidin-3-yl)(methyl)amino)phenylamino)-5-methoxypyrimidin-4-yloxy)phenyl)acrylamide] | ≤ 0.01 | 

The next lines start with the values.

IC50 [1] [µM] | IC50 [2] [µM] | Compound
≤ 0.01 |  | C=CC(=O)Nc1cccc(Oc2nc(Nc3ccc(N[C@@H]4CCN(CCF)C4)cc3)ncc2F)c1 [Compound I-19, (R)—N-(3-(5-fluoro-2-(4-(1-(2-fluoroethyl)pyrrolidin-3-ylamino)phenylamino)pyrimidin-4-yloxy)phenyl)acrylamide]
≤ 0.01 |  | C=CC(=O)Nc1cccc(Oc2nc(Nc3ccc(N[C@H]4CCN(CCF)C4)cc3)nc3[nH]ccc23)c1 [Compound I-27a, (S)—N-(3-(2-(4-(1-(2-fluoroethyl)pyrrolidin-3-ylamino)phenylamino)-7H-pyrrolo[2,3-d]pyrimidin-4-yloxy)phenyl)acrylamide]
≤ 0.01 | ≤ 0.2 | C=CC(=O)Nc1cccc(Oc2nc(Nc3ccc(N[C@H]4CCN(CCOC)C4)cc3)ncc2OC)c1 [Compound I-30a, (S)—N-(3-(5-methoxy-2-(4-(1-(2-methoxyethyl)pyrrolidin-3-ylamino)phenylamino)pyrimidin-4-yloxy)phenyl)acrylamide]
≤ 0.01 | ≥ 0.4 | C=CC(=O)Nc1cccc(Nc2nc(Nc3ccc(N[C@H]4CCN(CCOC)C4)cc3)ncc2OC)c1 [Compound I-31a, (S)—N-(3-(5-methoxy-2-(4-(1-(2-methoxyethyl)pyrrolidin-3-ylamino)phenylamino)pyrimidin-4-ylamino)phenyl)acrylamide]
≤ 0.01 | ≥ 0.4 | C=CC(=O)Nc1cccc(Oc2nc(Nc3ccc(NCCOC)cc3)ncc2OC)c1 [Compound I-32a, N-(3-(5-methoxy-2-(4-(2-methoxyethylamino)phenylamino)pyrimidin-4-yloxy)phenyl)acrylamide]
≤ 0.01 | ≥ 0.4 | C=CC(=O)Nc1cccc(Oc2nc(Nc3ccc4c(c3)CCN4CCOC)ncc2OC)c1 [Compound I-34a, N-(3-(5-methoxy-2-(1-(2-methoxyethyl)indolin-5-ylamino)pyrimidin-4-yloxy)phenyl)acrylamide]
≤ 0.01 | 0.2 to 0.4 | C=CC(=O)Nc1cccc(Oc2nc(Nc3ccc(N(C)CCOC)cc3)ncc2OC)c1 [Compound I-35a, N-(3-(5-methoxy-2-(4-((2-methoxyethyl)(methyl)amino)phenylamino)pyrimidin-4-yloxy)phenyl)acrylamide]
≤ 0.01 |  | C=CC(=O)Nc1cccc(Oc2nc(Nc3ccc4c(c3)CCN4S(C)(=O)=O)ncc2OC)c1 [Compound I-59a, N-(3-(5-methoxy-2-(1-(methylsulfonyl)indolin-5-ylamino)pyrimidin-4-yloxy)phenyl)acrylamide]
≤ 0.01 |  | C=CC(=O)Nc1cccc(Oc2nc(Nc3ccc(N(C)[C@H]4CCN(S(C)(=O)=O)C4)cc3)ncc2OC)c1 [Compound I-60a, (S)—N-(3-(5-methoxy-2-(4-(methyl(1-(methylsulfonyl)pyrrolidin-3-yl)amino)phenylamino)pyrimidin-4-yloxy)phenyl)acrylamide]
≤ 0.01 |  | C=CC(=O)Nc1cccc(Oc2nc(Nc3ccc(N[C@H]4CCN(C(C)=O)C4)cc3)nc3[nH]ccc23)c1 [Compound I-61a, (S)—N-(3-(2-(4-(1-acetylpyrrolidin-3-ylamino)phenylamino)-7H-pyrrolo[2,3-d]pyrimidin-4-yloxy)phenyl)acrylamide]
